For series [1], the system named is NSC34 cells. Nature of the series: Cell viability dose response, NSC34. The class given is cell-based, mouse. The conditions noted are these: NSC34, 24 hr. Here is the method: (§1) Supplementary Figure S6. Cell viability upon treatment with Hematein. Cells were exposed to increasing concentrations of Hematein or DMSO (control vehicle) for 24 hr under standard growth conditions. […] In both cases a range of drug tolerance was observed before the drop of viability over 10 µM. The graph indicates mean and SD of two independent experiments.

For series [2], the system named is hnRNPA2B1 protein association with purine-rich RNA probe. Briefly: RNA pull-down with biotinylated EXOmotif probe after cell treatment, immunoblotting. Format: cell-based, mouse. The conditions noted are these: NSC34 cells, 6 h, 5 μM compound. How it is done:
To prepare native protein lysates, 1–3 × 10^6 NSC34 cells were lysed in buffer R-Lysis [25 mM HEPES, pH 7.5, 100 mM NaCl, 1× protease inhibitor (Thermo Fisher, 78429)] and subjected to a water-bath sonication (35–40 amplitude, 6–7 cycles of 7 s on and 45 s off). After a centrifugation at 14 000 rpm for 20 min at 4°C, the supernatant was collected and 200 μg were incubated with 5 μl of buffer equilibrated Dynabeads^TM M-280 Streptavidin (Invitrogen, 11205D) for 15 min at 4°C in rotation to perform a pre-clearing step. After the magnetic separation, the pre-cleared lysate was incubated with 10 μl of 100 μM RNA biotinylated probes (or 400 ng of biotinylated EV-RNA) and incubated for 1 h at 4°C in rotation. Then, 5 μl/sample of beads were added and the sample were put again in rotation for 20 min at 4°C. […]
Cells were lysed in lysis buffer [50 mM Tris–HCl, pH 7.4, 150 mM NaCl, 1 mM EDTA, 0.25% NP-40, 0.1% Triton X-100, 0.1% sodium dodecyl sulphate, 1× protease inhibitor (Thermo Fisher, 78429)]. […] The signal was measured with Amersham ECL HRP-Conjugated Antibodies (Cytiva) using BioRad Chemidoc XRS+.
For orientation: In western blotting, separated proteins are transferred to a membrane and probed.

Series [3] concerns HEK293T cells. Nature of the series: Cell viability dose response, HEK293T. Format: cell-based, human. Conditions: 24 hr. How it is done:
as §1

The subject of series [4] is NSC34 cells. Briefly: Nanodrop quantification of total intracellular RNA after treatment. Format: cell-based, mouse. The conditions noted are these: 6 h treatment. Here is the method: RNA from cells was extracted using TRI Reagent® ([…], Sigma) following the manufacturer's instructions. Thermo Fisher Nanodrop 2000 Spectrophotometer was used to assess the purity and quantity of extracted RNA. RNA from EVs was extracted using Single Cell RNA Isolation Kit (51800, Norgen) following the manufacturer's protocol. The elution was in 10-20 μl of RNase-free water and the RNA profiling and quantification was assessed by Agilent 2100 Bioanalyzer and RNA 6000 Pico Kit (5067-1513). Cell- and EV-RNAs were also analysed with DNF-472 HS RNA (15 nt) Kit (Agilent Technologies, Santa Clara, CA), according to the manufacturer. Briefly, 2 μl of RNA samples concentrated within a range of 50-5000 pg/μl and RNA Ladder were added to Diluent Marker, denatured at 70°C for 2 min and loaded. Results were analysed with Agilent ProSize data analysis software, that allows the analysis of RNA size, concentration and quality. Through a Peak Analysis it was possible to access the concentration of each peak recognized by the software. Half a nanogram of extracted RNA from cells and EVs was used as input for complementary DNA (cDNA) synthesis. cDNA was produced using TaqManTM Advanced miRNA cDNA Synthesis Kit (Applied BiosystemsTM, A28007) following manufacturers' instructions and used for droplet digital polymerase chain reaction (PCR) experiments.

In series [5] the test system is EXO-motif RNA probe. Nature of the series: Absorbance scan of compounds mixed with EXO-motif RNA. The class given is binding. The conditions noted are these: EXO-motif probe, 1:5 micromolar ratio with compound, room temperature. Here is the method:
(§2) Five μM RNA EXO motif were mixed with 25 μM compounds in AlphaBuffer (25 mM HEPES, pH 7.4, 100 mM NaCl, 0.01% BSA) to a final volume of 20 μl. Absorbance spectrum (200–530 nm) was measured using Tecan Spark® microplate reader with a NanoQuant plate at room temperature. In fluorescence indicator displacement (FID), a 2× final concentration of Midori green advanced (Resnova) was added to the samples and the melting curve measured using Bio-Rad CFX96™ System from 30°C to 90°C.

For series [6], the system named is hnRNPA2B1 and TDP43 bound RNA (miR-221, miR-1910). Briefly: RNA immunoprecipitation (RIP) on cytoplasmic lysates of treated NSC34 cells. The class given is cell-based, mouse. Conditions: 6 h treatment, anti-hnRNPA2B1 and anti-TDP43 RIP. How it is done: Flow cytometry of a fraction of RNA immunoprecipitation (RIP) experiments, consisting of RNA/protein-antibody-bead complexes, was performed on the same instrument using a sequential gating with Streptavidin beads alone ± antibodies (this signal corresponded to background). Pyronin Y (PY) was used at a final concentration of 50 ng/ml and the PY-positive events recorded for 1 min.
Approximately 2 × 10^6 cells were used for each RIP experiment, performed as already described, without cross-linking steps and using 0.5 μg/ml of antibodies. Beads-precipitated samples were divided for immunoblotting or TRIzol-based RNA isolation. Densitometric analysis obtained using Image J software (v.1.54). miRNA TaqMan probes were bought from Thermo Fisher with the following codes: miR-221 (477 981), miR-1910 (479 581), and miR-126 (4 427 975).

Series [7] deals with NF-kB. Briefly: NF-kB luciferase reporter in EV-recipient HEK293T cells. Format: cell-based, human. The conditions noted are these: EVs from hnRNPA2B1 OE HEK293T donor cells treated 5 μM 6 h; recipient cells 8 h. A general note: A reporter such as luciferase makes a cellular process visible.
Text: To obtain some preliminary information on the bioactivity of identified compounds in relation to EV function, we explored the potential activation NF-kB in EV-recipient cells as a readout. […] We, therefore, used HEK293T cells as EV-recipient cells upon transfecting them with an NF-kB-responsive promoter activating the luciferase reporter. To work with an experimental set up considering the post-transcriptional effects on the readout, we evaluated if the expression of the recombinant hnRNPA2B1 could induce secretion of EVs capable of activating NF-kB if further exposed to autologous cells. […] We, therefore, exploited this system to test compounds including some indication on the relevance of the EV-RNA cargo in mediating the luciferase activation in recipient cells. […] Next, we washed with PBS and incubated cells with serum-free media for additional 24 h to recover EVs. We exposed these EVs for 8 h to HEK293T cells previously seeded in 96-well plate and transfected with the luciferase reporter plasmid for 24 h. […]
Paracrine effect on NF-kB activation of EVs deriving from RBP-conditioned and treated cells. […] Firefly luminescence was normalized on cellular protein content at the end point on the corresponding sample. […]
In series [8] the target is T1, hnRNPA2B1-EXOmotif interaction (Homo sapiens, UniProt P22626).
T1 construct: purified a human full-length, GST-tagged protein expressed in Escherichia coli cells; made in house; host or cells: E. coli BL21 (DE3)
T1 sequence (P22626 whole entry): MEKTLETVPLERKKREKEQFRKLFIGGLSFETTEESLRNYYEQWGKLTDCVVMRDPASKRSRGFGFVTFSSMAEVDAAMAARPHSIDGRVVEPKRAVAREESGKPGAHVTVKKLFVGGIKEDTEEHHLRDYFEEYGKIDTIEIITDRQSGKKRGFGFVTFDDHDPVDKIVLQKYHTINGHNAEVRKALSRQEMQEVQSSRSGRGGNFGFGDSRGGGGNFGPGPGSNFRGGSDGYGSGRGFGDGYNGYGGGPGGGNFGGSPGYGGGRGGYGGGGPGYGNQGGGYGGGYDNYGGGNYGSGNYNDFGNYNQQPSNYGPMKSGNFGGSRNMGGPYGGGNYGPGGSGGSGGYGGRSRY
Briefly: AlphaScreen dose-response, inhibition of hnRNPA2B1-EXOmotif RNA interaction. Format: binding. Conditions: AlphaScreen dose-response with RNA EXOmotif, one site fitting. Background: Bead proximity is the source of the signal in Alpha formats.
Experimental: The assays were performed in OptiPlate-384-well plates (PerkinElmer, 6007299) in 20 μl final volume. The ligands were diluted in AlphaBuffer [25 mM HEPES, pH 7.4, 100 mM NaCl, 0.01% bovine serum albumin (BSA)] and tested using AlphaScreen GST Detection Kit (PerkinElmer, 6760603C). […] For the reactions, 4 μl of the RNA probes were first added to the plate, then 16 μl of a mix containing all the other components was added, and the plate was incubated at room temperature for 1 h in the dark.
The high-throughput drug screening was performed in a total volume of 20 μl using 17 nM of RNA EXO motif (chosen below the hooking point), 30 nM GST-hnRNPA2B1, and 250 nM of compounds belonging to mass spectrometry (MS) Spectrum Collection library (MicroSource, 2000 compounds). Compounds were dispensed into white 384-well Optiplates (PerkinElmer) using Echo 650 acoustic dispenser (Beckman Coulter) followed by the addition of protein in Alpha Buffer using the EL460 dispenser (BioTek). After 15 min of incubation, RNA probes were added by Echo 650 acoustic dispenser, while Donor and Acceptor beads from the GST detection kit (Perkin Elmer) were dispensed by EL460 instrument. Following 60 min of incubation, Alpha signal was detected using Enspire plate reader instrument (PerkinElmer). The raw Alpha counts were normalized to Dimethyl sulfoxide (DMSO)-treated controls within every plate.

Series [9] concerns EXO-motif RNA. Briefly: Fluorescence indicator displacement (FID) melting curve, EXO-motif RNA. The class given is binding. Conditions: 5 μM RNA, 25 μM compound, Midori green. How it is done:
as §2

Broadly, the IC50 is the concentration that gives 50% inhibition.

Values joined by “and” are separate entries in the source; they are usually repeats but may differ in a detail not shown here. Equal values may be shown once.

Take `O=C1C=C2CC3(O)COc4c(ccc(O)c4O)C3=C2C=C1O` (centres unmarked) [H, hematein]: the IC50 in series [1] (Mus musculus, NSC-34) was around 78 µM; in series [3] (Homo sapiens, HEK-293T), around 41 µM; in series [8] it was ~0.1 µM and 0.0999 µM. The “concentration of drop of viability” value in series [1] and in series [3] was “over 10 µM” throughout. The “association of hnRNPA2B1 protein with exogenous purine-rich RNA probe” value in [2] was “most effective”. Moreover, in series [4], the “accumulation of intracellular RNAs” value is “significantly higher”. Besides, the “absorbance shifts, 300-400 nm” value in series [5] is “absorbance shifts”. Moreover, the “percentage of bound targets (miR-221, miR-1910)” value in series [6] is reported as “significantly reduced”. The “EV-mediated, hnRNPA2B1-induced NF-kB activation” value in series [7] is recorded as “significantly counteracted”. For the same compound, the “thermal shift of the EXO-motif RNA” value in series [9] worked out at 9.5 °C.

For the origin of these results see PMC11915509, “Small molecule inhibitors of hnRNPA2B1–RNA interactions reveal a predictable sorting of RNA subsets into extracellular vesicles” (Nucleic Acids Research, 2025).
